Results taken from article PMC10515483, “Structure–Reactivity Studies of 2-Sulfonylpyrimidines Allow Selective Protein Arylation” (Bioconjugate Chemistry, 2023).
In brackets after ≈: the same amount, converted by molar mass.

Columns and labels:
[1] = GSH arylation rate constants (NMR; UV-vis for fast warheads); assay type: physicochemical; set-up: key to rate constant (k) for the reaction with GSH / k: NR = no reaction; conditions: for k: Table S8, rate constants obtained at pH = 7; for k change (vs ref): ratio to rate constant of 4q, acceleration (+) or deceleration (-); for k/kref / ΔΔG≠1exp: relative to 4q; for ΔΔG≠1exp: via -RTln(k/kref); for times less reactive than 4q: GSH; for reactivity with GSH (in words): up to 6 h
Text: We employed nuclear magnetic resonance (NMR) and UV–vis to quantify the reactivity of our 2-SP derivatives and other representative electrophiles (Figure 2) against cysteine. NMR allowed straightforward determination of reaction rate constants through dual monitoring of the consumption of the warhead and formation of the product by integration of their respective NMR signals (Figures S1–S3). It simultaneously provided a direct readout on reaction specificity and hydrolytic stability of the warhead. All measurements were carried out in KPi buffer in the presence of 5% d^6-dmso, which is generally well-tolerated by a wide range of proteins in in vitro studies. N-acetylcysteine methylester (NACME) and L-glutathione (GSH) are useful model cysteine nucleophiles for in vitro studies of electrophilic agents.[32] Mixing reference electrophile 2-methylsulfonylpyrimidine (4q) with NACME or GSH in a 1:10 ratio (pseudo-first-order conditions) allowed extraction of accurate and reproducible second order rate constants (k).
Figure 3 In vitro determination of electrophilic reactivity of compounds. (A) NMR assay setup for warhead/GSH reaction rate constant determination and chemoselectivity monitoring, over a 6 h time scale. Purple bead = GSH. Hydrolytic stability was determined in the same way over 36 h. d^4-Trimethylsilylpropanoate (TMSP, blue box) was used as an internal standard for monitoring the warhead solubility. Second-order reaction rate constants (k) were obtained from their pseudo-first-order counterparts (k′), by time-dependent normalized integration of the disappearing warhead signals. […] (B) Experimental second-order rate constants (y axis, log10 scale) for the reaction of representative 2-SP derivatives (left, 11 out of ca. 40 examples) and previously reported heteroarylsulfones (right) with GSH in a KPi buffer, pH 7.0, 20 °C. All rate constants were calculated as an average of at least two independent measurements. Numerical values and standard deviations at both pH 7.0 and 6.5, along with a full list of 2-SPs and other electrophile types tested, are presented in Tables S2–S6 and Figure S4. The horizontal dashed line marks the reaction rate of 2-methylsulfonylpyrimidine at pH 7.0, as a reference when comparing with other reagents (see main text).
To establish an accurate structure–reactivity profile of 2-SP reagents, we systematically determined their reaction rate constants for the arylation of GSH by NMR, at pH 7.0 and 6.5. This was a prerequisite to (i) quantify the influence of substitution on reaction rates; (ii) accurately assess the tunability and chemoselectivity of 2-SPs for cysteine arylation; (iii) determine the influence of pH on the reaction rates to further inform on the precise reaction mechanism; and (iv) benchmark the overall performance of 2-SPs with those of previously reported fast reacting heteroarylsulfones and other common cysteine reactive warheads (Figure 2C,D).

[2] = Hydrolytic stability in KPi buffer without thiol (NMR); assay type: physicochemical; conditions: for % degradation: over 12 hours, 50 mM KPi, footnote a: crashing out of solution, no degradation product; for hydrolysis in aqueous buffer (in words): buffer in the absence of GSH
Method: NMR studies: rate constant determination and hydrolytic stability. 850 µL of 50 mM Kpi buffer solution (pH 8.2 or 7), 20 µL of the appropriate pyrimidine stock s olution (100 mM in DMSO -d6), 20 µL of TMSP stock solution (22.2 mM in DI water), 30 µL DMSO -d6, and 80 µL of GSH stock solution (0.25 M in DI water, reactivity only) were successively added/mixed at room temperature, final pH 7.0 or 6.5 (Table S1). 600 µL of this freshly prepared solution was poured into an NMR tube and immediately […]
transferred to the NMR instrument for acquisition. 1H spectra (16 scans) were recorded every 10 minutes under water suppression conditions. Following acquisition, spectra were analysed using […]
order reaction rate constants (k’).

[3] = Solubility in KPi buffer by NMR with TMSP internal standard; conditions: 50 mM KPi aqueous buffer, pH 7, aqueous with cosolvent or surfactant or cyclodextrin, kinetic from dmso stock
Text: Stability and solubility assays
TopSpin. Normalised integrations of the pyrimidine aromatic 1H signals in the starting material and
product were plotted as a function of time (s), using the TMSP peak as standard for integral
calibration/normalisation and monitoring of compound solubility, allowing extraction of pseudo first
order reaction rate constants (k’). Second order rate constants (k) were back calculated from the ratio
of the pseudo first counterparts and the concentration of thiol in solution.
was confirmed by formation of a single S-arylated product (characteristic 2-alkylthioether signals),
concomitant with formation of the sulfinic acid by -product (leaving group). Hydrolytic stability
assessment was performed at pH 7.0 and pH 8.2 in a similar manner, in the absence of thiol.
Chemoselectivity. Similarly, but replacing GSH by other amino acids , reference 2-
methylsulfonylpyrimidine 4q in 50 mM KPi (pH 8.2) was incubated with 10 equivalents of either Boc-
Lys-OH, L-ser-OMe, N-Ac-Tyr-OH or Proline were used.

[4] = pH 6.5, by NMR, KPi buffer, 5% DMSO-d6
[5] = pH 7.0, by NMR, KPi buffer, 5% DMSO-d6

Compound	rate constant (k) for the reaction with GSH [1, 4]	rate constant (k) for the reaction with GSH [1, 5]	k change (vs ref) ([1]; pH 7.0)	solubility [3]	reactivity with GSH (in words) ([1]; KPi buffer)	further results
CSc1ncc(-c2ccccc2)cn1 [2p]	NR	NR	–	–	–	melting point: 98 °C
CSc1ncc(I)cn1 [2u]	NR	NR	–	–	–	melting point: 104 °C
CSc1ncc(C(=O)O)cn1 [2v]	NR	NR	–	–	–	melting point: 251 °C
CSc1ncc([N+](=O)[O-])cn1 [2w]	0.00025 ± 0.00016 M⁻¹ s⁻¹	0.0034 ± 0.0016 M⁻¹ s⁻¹	–	–	–	melting point: 84 °C
CS(=O)(=O)c1ncc(N)cn1 [4m]	NR	NR	–	–	–	second order rate constant k with GSH ([1]; pH 7.0, KPi buffer): < 5.0 × 10^–5 M^–1 s^–1; melting point: 138 °C
Cc1cnc(S(C)(=O)=O)nc1 [4o]	NR	0.0017 ± 0.0015 M⁻¹ s⁻¹	-15 fold	≥ 2000 µM	–	% degradation ([2]; pH 8.2): < 5%; k [1]: 0.0017 M⁻¹ s⁻¹; k/kref [1]: 0.068; ΔΔG≠1exp [1]: 1.6 kcal/mol
CS(=O)(=O)c1ncc(Cl)cn1 [4s]	0.027 ± 0.012 M⁻¹ s⁻¹	0.19 ± 0.11 M⁻¹ s⁻¹	+8 fold	≥ 2000 µM	–	% degradation ([2]; pH 8.2): 7%; k [1]: 0.19 M⁻¹ s⁻¹; k/kref [1]: 7.6; ΔΔG≠1exp [1]: -1.2 kcal/mol
CS(=O)(=O)c1ncc([N+](=O)[O-])cn1 [4w]	–	–	+1,880 fold	~130 µM (≈ 26.4 µg/mL)	–	hydrolysis in aqueous buffer (in words) [2]: partial, slow hydrolysis; rate constant (k) for the reaction with GSH ([1]; pH 6.5, measured by UV titrations): 15 ± 0.4 M⁻¹ s⁻¹; rate constant (k) for the reaction with GSH ([1]; pH 7.0, measured by UV titrations): 47 ± 1 M⁻¹ s⁻¹; melting point: 113 °C
CS(=O)(=O)c1nnnn1-c1ccccc1 [compound 7, 1-phenyl 5-methylsulfonyl tetrazole, reference compound]	–	–	+170 fold	≥ 2000 µM	–	% degradation ([2]; pH 7.0): < 5%; % degradation ([2]; pH 8.2): 8%; second order rate constant k with GSH ([1]; pH 7.0, KPi buffer): ≈ 4.3 M^–1 s^–1
CS(=O)(=O)c1nc2ccccc2s1 [compound 9, 2-Methysulfonylbenzothiazole, reference compound]	0.063 ± 0.023 M⁻¹ s⁻¹	0.23 ± 0.035 M⁻¹ s⁻¹	+9 fold	≥ 2000 µM	–	% degradation ([2]; pH 7.0): 15%; % degradation ([2]; pH 8.2): < 5%; k [1]: 0.23 M⁻¹ s⁻¹; second order rate constant k with GSH ([1]; pH 7.0, KPi buffer): ≈ 0.23 M^–1 s^–1; k/kref [1]: 9.2; ΔΔG≠1exp [1]: -1.31 kcal/mol
Cc1cc(C)c(C#N)c(S(C)(=O)=O)n1 [compound 11, 4,6-dimethyl-2-(methylsulfonyl)nicotinonitrile, reference compound]	0.00045 ± 5e-05 M⁻¹ s⁻¹	0.0023 ± 0.00025 M⁻¹ s⁻¹	-11 fold	≥ 2000 µM	–	times less reactive than 4q ([1]; pH 7.0): ca. 5 times
Cc1cc(C)c([N+](=O)[O-])c(S(C)(=O)=O)n1 [compound 12, 4,6-dimethyl-2-(methylsulfonyl)-3-nitropyridine, reference compound]	0.00075 ± 0.00025 M⁻¹ s⁻¹	0.0028 ± 0.00025 M⁻¹ s⁻¹	-9 fold	≥ 2000 µM	–	% degradation ([2]; pH 7.0): < 5%; % degradation ([2]; pH 8.2): < 5%; times less reactive than 4q ([1]; pH 7.0): ca. 5 times; k [1]: 0.0028 M⁻¹ s⁻¹; k/kref [1]: 0.11; ΔΔG≠1exp [1]: 1.29 kcal/mol
CS(=O)(=O)c1cnccn1 [compound 18]	NR	NR	–	–	completely switched off reactivity	–
COc1nc(OC)nc(S(C)(=O)=O)n1 [compound 19, 2,4-dimethoxy-6-(methylsulfonyl)-1,3,5-triazine]	–	–	–	–	–	hydrolysis in aqueous buffer (in words) [2]: rapid hydrolysis in aqueous buffers or by trace/ambient moisture; k [1]: unstable
O=C1C=CC(=O)N1Cc1ccccc1 [compound 21, N-benzylmaleimide, reference compound]	–	Multiple products	–	–	heterogeneous mixture of succinimidyl products	second order rate constant k with GSH ([1]; pH 7.0, KPi buffer): > 0.5 M^–1 s^–1
C=CC(=O)Nc1ccccc1 [compound 22, reference compound]	–	NR	–	–	none	–
OB1OCc2ccccc21 [compound 23, reference compound]	–	–	–	–	–	rate constant (k) for the reaction with GSH ([1]; pH 7): NR
c1ccc(C2CO2)cc1 (stereo not drawn) [compound 24, reference compound]	–	NR	–	–	none	–
O=C(c1ccccc1)C(F)(F)F [compound 25, reference compound]	–	NR	–	–	none	–
O=S(=O)(F)c1ccccc1 [compound 26, reference compound]	–	NR	–	–	none	–
CC1(C)S[C@@H]2[C@H](N)C(=O)N2[C@H]1C(=O)O [compound 27, reference compound]	–	NR	–	–	none	–
